Data taken from patent publication US4560687A, “Substituted aromatic compounds” (priority 1979, dated 1985).
Like-named read-outs stand apart in the source and are kept apart here.

Tests used:
Plasmadium berghei = Plasmadium berghei in mice; Rees et al, 1972; cited from earlier work
[1] = cited from earlier work; for toxicity: at curative doses
[2] = standard maximal electroshock test (anticonvulsant activity); type: in vivo; conditions: Mus musculus, po, mice
Description: The anticonvulsant activity of the compounds of the present invention was determined by a standard maximal electroshock test, that described by L. A. Woodbury and V. D. Davenport, Arch. Int. Pharmacodyn., 1952, 92, 97.

[3] = anti-malarial agents tested as anticonvulsants; Rosenburg and Bottiroli, 1964; cited from earlier work

Compound | activity against malaria (Plasmadium berghei) | toxicity ([1]; Rees et al, 1972) | ED50 [2] | other results
Nc1nnc(-c2ccc(Cl)cc2Cl)c(N)n1 [2,4-dichlorophenyl] | only slight antimalarial activity | – | – | –
Nc1nnc(-c2ccc(Cl)cc2)c(N)n1 [4-chlorophenyl] | active against the malaria organism | toxic at curative doses | – | therapeutic ratio ([1]; malaria context, Rees et al, 1972): low therapeutic ratio
Nc1nnc(-c2ccc(Cl)c(Cl)c2)c(N)n1 [3,4-dichlorophenyl] | active against the malaria organism | toxic at curative doses | – | therapeutic ratio ([1]; mouse, in vivo): low therapeutic ratio
Nc1nnc(-c2cc3ccccc3cc2Cl)c(N)n1 [3,5-diamino-6-(3-chloro-2-naphthyl)-1,2,4-triazine] | – | – | 12 mg/kg | –
CCN(CCO)CCCC(C)Nc1ccnc2cc(Cl)ccc12 (stereo not shown) [hydroxychloroquine] | – | – | – | anticonvulsant activity profile [3]: favourable activity profile
Nc1nnc(-c2ccc(C(F)(F)F)cc2)c(N)n1 [4-trifluoromethylphenyl] | still being active against malaria | less toxic than the chlorophenyl compounds | – | –
Cc1cc(Cl)ccc1-c1nnc(N)nc1N [3,5-diamino-6-(4-chloro-2-methylphenyl)-1,2,4-triazine] | – | – | 14.8 mg/kg | –
Nc1nnc(-c2ccc(Cl)c(C(F)(F)F)c2)c(N)n1 [3,5-diamino-6-(4-chloro-3-trifluoromethylphenyl)-1,2,4-triazine] | – | – | 18.5 mg/kg | –
